No end group written: not given here.
What was measured:
[1] = system: NSC-34 cells; test: LDH assay (cytotoxicity) in NSC-34 cells; format: cell-based; conditions: for dose dependence of abrogation of GR15-induced cytotoxicity / dose dependence of abrogation of PR15-induced cytotoxicity: dose range of the example
Description: LDH Assay: The LDH assay is a colorimetric assay that measures cell toxicity and death. […] When cells lose membrane integrity, an enzyme found in living cells called lactate dehydrogenase (LDH) is released into the solution surrounding the dying cell. A form of programmed cell death, apoptosis, as well as other forms of cell death also ultimately lead to a cell's membrane being destroyed, resulting in a large release of LDH into the extracellular space. Thus, LDH is an excellent marker not only for necrosis, but for all instances of cell death. In an LDH assay, a sample of the solution surrounding the cell is isolated, and transferred to a plate containing an LDH reaction mixture. This reaction mixture contains a tetrazolium salt intermediate and other reaction constituents that, when exposed to LDH, convert the tetrazolium salt into a colored Formazan product. This Formazan product can be quantified spectrophotometrically. Greater absorbance readings correspond to more cell death.
One row on the top and bottom of the plate, and two columns on either side of the plate, were left without cells and contained culture medium only to minimize experimental well volume evaporation. After plating, cells were incubated for 24 h at 37° C., 5% CO2 prior to DRP and/or PRMT inhibitor addition. At time of DRP/PRMT inhibitor addition, desired doses of DRP for challenge and inhibitor for treatment were achieved by diluting aliquots of each stock in warm culture medium. During experiments where both PRMT inhibitors and DRPs were used, PRMT inhibitors were always applied to wells first, and followed by DRP application. […] Inhibitor toxicity controls were included as wells treated with the desired doses of drug for the experiment, but no DRP. DRP toxicity controls were included as wells only treated with the doses of DRP used for challenge. Once dosed, plates were incubated for 24 h at 37° C., 5% CO2 prior to running the WST-1 or LDH assay endpoints. Additional controls needed for each endpoint are specified in the “WST-1 Assay” and “LDH Assay” sections of these methods.
LDH Assay: Cells were plated and prepared using the steps described in the “Plating NSC-34 and Dosing with DRPs and PRMT Inhibitors” section of these methods. Other controls for this experiment included several sets of wells with only cells in culture medium (one triplicate designated for “untreated,” one triplicate designated for “lysed” positive control), and wells with culture medium only. An additional control added only to the transfer plate at time of testing was 5 μL LDH only. Testing was performed using colorimetric LDH-Cytotoxicity Assay Kit II (Abcam, Cambridge, MA, USA) per manufacturer's instructions. Final read at 450 nm was performed on a SpectraMax M3 Microplate Reader (Molecular Devices, San Jose, CA, USA). Data analysis included calculation of % LDH release using the following equation: […]
Experiments included three replicates per condition. Each experiment was repeated twice (executed three times total).
(§1) The following conditions were plated in triplicate.
Plates were incubated for 24 h at 37° C., 5% CO2. Cells were tested and data were analyzed by LDH assay.
Cells were plated in culture medium in 2 96-well plates at a density of 3.7×10^4 cells per well, and incubated overnight at 37° C., 5% CO2.
as §1
Cells were plated in culture medium in 2 96-well plates at a density of 3.7×10^4 cells per well, and incubated overnight at 37° C., 5% CO2. […]
The following conditions were plated in triplicate. […]

[2] = system: NSC-34 motor-neuron-like cells; test: WST-1 assay (dysmetabolism) in NSC-34 cells; format: cell-based, Mouse; conditions: for dose dependence of abrogation of GR15-induced dysmetabolism / dose dependence of abrogation of PR15-induced dysmetabolism: dose range of the example
Description: WST-1 Assay: The WST-1 assay is a colorimetric assay that measures cell metabolism. Cells with a healthy metabolism contain mitochondrial dehydrogenase enzymes that remove hydrogen atoms from certain molecules, resulting in a release of energy that the cell can use to perform critical reactions. In the WST-1 assay, a water soluble tetrazolium salt substrate (known as WST-1) is applied, which readily enters cells and their mitochondria upon application. If cells are viable, their mitochondrial dehydrogenase enzymes will catalyze the reaction to convert this WST-1 substrate to a colored product called Formazan. The production of this colored Formazan product by viable cells can be quantified using a spectrophotometer (plate reader). Higher absorbance readings correspond to greater metabolic activity/cell viability.
NSC-34 Cell Culture: NSC-34 cells (Cedarlane Laboratories, Burlington, ON, CA) were cultured in a complete medium consisting of High Glucose Dulbecco's Modified Eagle Medium (Millipore-Sigma, Burlington, MA, USA) supplemented with 10% US-origin fetal bovine serum (Thermo-Fisher Scientific, Cambridge, MA, USA), 1% 200 mM L-Glutamine solution (Thermo-Fisher Scientific, Cambridge, MA, USA), and 1% 10,000 U/mL Penicillin-Streptomycin solution (Thermo-Fisher Scientific, Cambridge, MA, USA). Prior to preparation of NSC-34 complete medium, L-Glutamine and Penicillin-Streptomycin solutions were aliquoted and stored at −20° C., and DMEM/High Glucose was stored at 4°. […] Prepared complete medium, DPBS, and Trypsin were always heated in a 37° C. water bath before use, and stored at 4° C. between uses. Cell counts for plating were performed using a Hausser Scientific cell counting chamber (Thermo-Fisher Scientific, Cambridge, MA, USA).
Proteins were reconstituted in sterile DMSO (Millipore-Sigma, Burlington, MA, USA) to stock concentrations of 10 mM, and stored at 4° C.
After reconstitution using the solvents specified in Table _, stocks were aliquoted to 15-20 μL and immediately stored at −20° C.
One row on the top and bottom of the plate, and two columns on either side of the plate, were left without cells and contained culture medium only to minimize experimental well volume evaporation. After plating, cells were incubated for 24 h at 37° C., 5% CO2 prior to DRP and/or PRMT inhibitor addition. At time of DRP/PRMT inhibitor addition, desired doses of DRP for challenge and inhibitor for treatment were achieved by diluting aliquots of each stock in warm culture medium. During experiments where both PRMT inhibitors and DRPs were used, PRMT inhibitors were always applied to wells first, and followed by DRP application. […] Inhibitor toxicity controls were included as wells treated with the desired doses of drug for the experiment, but no DRP. DRP toxicity controls were included as wells only treated with the doses of DRP used for challenge. […] Additional controls needed for each endpoint are specified in the “WST-1 Assay” and “LDH Assay” sections of these methods.
WST-1 Assay: Cells were plated and prepared using the steps described in the “Plating NSC-34 and Dosing with DRPs and PRMT Inhibitors” section of these methods. Other controls for this experiment included wells containing only cells in culture medium, and culture medium only. At time of testing, culture medium was removed from wells and replaced with a warmed, sterile-filtered solution consisting of DPBS with calcium and magnesium, and 4.5 g/L D-glucose (Millipore-Sigma, Burlington, MA, USA). To wells containing 200 μL DPBS-glucose solution, 20 μL/well WST-1 reagent (Millipore-Sigma, Burlington, MA) was applied and plates were then incubated at 37° C., 5% CO2 for 1 h before plates were read at 450 nm on a SpectraMax M3 Microplate Reader (Molecular Devices, San Jose, CA, USA). Experiments included three replicates per condition.

[3] = 3 μM GR15, 24 h, doses 0.2-20 μM

CNCCN(C)Cc1c[nH]nc1-c1ccc(OC2CC(OCCC3CCOCC3)C2)cc1 (centres unmarked) [EPZ020411]
abrogation of GR15-induced cytotoxicity ([1]; 3 μM GR15, 24 h, all doses but 0.2 μM (1, 2, 10, 20 μM)): partially abrogated
dose dependence of abrogation of GR15-induced cytotoxicity ([1]; 3 μM GR15, 24 h): dose-dependently abrogated
dose with the greatest effect on GR15-induced cytotoxicity [1, 3]: 20 µM
abrogation of PR15-induced cytotoxicity ([1]; 3 μM PR15, 24 h, all doses but 0.2 μM (1, 2, 10, 20 μM)): partially abrogated
dose dependence of abrogation of PR15-induced cytotoxicity ([1]; 3 μM PR15, 24 h): dose-dependently abrogated
dose with the greatest effect on PR15-induced cytotoxicity ([1]; 3 μM PR15, 24 h, doses 0.2-20 μM): 20 µM
cytotoxicity independently of GR and PR challenge ([1]; no DRP, doses 10 and 20 μM): did cause significant cytotoxicity
dose with the greatest abrogation of GR15-induced dysmetabolism [2, 3]: 20 µM
abrogation of GR15-induced dysmetabolism ([2]; 3 μM GR15, 24 h, inhibitor doses 2, 10 and 20 μM): partially abrogated
dose dependence of abrogation of GR15-induced dysmetabolism ([2]; 3 μM GR15 challenge, 24 h): dose-dependently abrogated
abrogation of PR15-induced dysmetabolism ([2]; 3 μM PR15, 24 h, inhibitor doses 10 and 20 μM): completely abrogated
dose dependence of abrogation of PR15-induced dysmetabolism ([2]; 3 μM PR15 challenge, 24 h): dose-dependently abrogated
dysmetabolism independently of GR and PR challenge ([2]; no DRP, doses 10 and 20 μM, not attributable to DMSO): did cause significant dysmetabolism
dysmetabolism independently of GR and PR challenge ([2]; no DRP, other doses tested (0.2, 1, 2 μM)): not at other doses tested

ADMe-GR15: asymmetrically dimethylated GR15, synthesized protein (Eurogentec) (GRGRGRGRGRGRGRGRGRGRGRGRGRGRGR; also: asymmetric arginine dimethylation, extent/places not given here)
cytotoxicity compared with non-methylated GR15 [1]: consistently producing more cytotoxicity than non-methylated GR15
dysmetabolism compared with non-methylated GR15 [2]: consistently producing more dysmetabolism than non-methylated GR15

O=C(NC[C@H](O)CN1CCc2ccccc2C1)c1ccnc(NC2CCC2)c1 [GSK591]
dysmetabolism independently of PR15 challenge vs untreated controls ([2]; no DRP, doses 33, 100 and 200 μM): produced dysmetabolism

CCOCC1(COCC)CCC(c2n[nH]cc2CN(C)CCNC)CC1 [GSK3368715]
abrogation of GR15-induced cytotoxicity ([1]; 3 μM GR15, 24 h, dose 1 μM): completely abrogated
dose dependence of abrogation of GR15-induced cytotoxicity ([1]; 3 μM GR15, 24 h): dose-dependently abrogated
abrogation of PR15-induced cytotoxicity ([1]; 3 μM PR15, 24 h, dose 1 μM): completely abrogated
abrogation of PR15-induced cytotoxicity ([1]; 3 μM PR15, 24 h, dose 3 μM): nearly completely abrogated
dose dependence of abrogation of PR15-induced cytotoxicity ([1]; 3 μM PR15, 24 h): dose-dependently abrogated
cytotoxicity independently of GR15 and PR15 challenge ([1]; no DRP, all doses (0.1-10 μM), likely solvent effects): induced low levels of cytotoxicity
dose dependence of abrogation of GR15-induced dysmetabolism ([2]; 3 μM GR15 challenge, 24 h): dose-dependently abrogated
abrogation of GR15-induced dysmetabolism ([2]; 3 μM GR15 challenge, 24 h, inhibitor doses 1 and 3 μM): completely abrogated
dose dependence of abrogation of PR15-induced dysmetabolism ([2]; 3 μM PR15 challenge, 24 h): dose-dependently abrogated
abrogation of PR15-induced dysmetabolism ([2]; 3 μM PR15 challenge, 24 h, inhibitor doses 1 and 3 μM): completely abrogated

CC(C)Oc1ccc(-c2c[nH]cc2CN(C)CCO)cc1 [MS094]
abrogation of GR15-induced cytotoxicity ([1]; 3 μM GR15, 24 h, over all tested doses (0.2-60 μM)): No doses of negative control MS094 abrogated cytotoxicity
abrogation of PR15-induced cytotoxicity ([1]; 3 μM PR15, 24 h, over all tested doses (0.2-60 μM)): No doses of negative control MS094 abrogated cytotoxicity
cytotoxicity of inhibitor alone vs untreated controls ([1]; no DRP, doses 10, 30 and 60 μM, at highest 2 doses likely DMSO-related): produced cytotoxicity
abrogation of GR15-induced dysmetabolism ([2]; 3 μM GR15 challenge, 24 h, over all tested doses of the inhibitor): No doses of negative control MS094 abrogated dysmetabolism
abrogation of PR15-induced dysmetabolism ([2]; 3 μM PR15 challenge, 24 h, over all tested doses of the inhibitor): No doses of negative control MS094 abrogated dysmetabolism

Reference: patent publication US12318365B2, “Inhibition of dipeptide repeat proteins” (ALS Therapy Development Institute, priority 2019, dated 2025)
